# Article PMC9229919, “4-Aminoquinoline-Based Adamantanes as Potential Anticholinesterase Agents in Symptomatic Treatment of Alzheimer’s Disease” (Pharmaceutics, 2022)
# Like-named read-outs stand apart in the source and are kept apart here.
# Experiments:
# recombinant human AChE = target: T1, recombinant human AChE (Homo sapiens, UniProt P22303); test: biochemical; type: biochemical; conditions: for IS: IS = Ki(BChE)/Ki(AChE), IS > 1 selective to AChE
# T1 construct: gift of Dr Florian Nachon (Armed Forces Biomedical Research Institute, Brétigny-sur-Orge, France)
# T1 sequence (P22303 32-614): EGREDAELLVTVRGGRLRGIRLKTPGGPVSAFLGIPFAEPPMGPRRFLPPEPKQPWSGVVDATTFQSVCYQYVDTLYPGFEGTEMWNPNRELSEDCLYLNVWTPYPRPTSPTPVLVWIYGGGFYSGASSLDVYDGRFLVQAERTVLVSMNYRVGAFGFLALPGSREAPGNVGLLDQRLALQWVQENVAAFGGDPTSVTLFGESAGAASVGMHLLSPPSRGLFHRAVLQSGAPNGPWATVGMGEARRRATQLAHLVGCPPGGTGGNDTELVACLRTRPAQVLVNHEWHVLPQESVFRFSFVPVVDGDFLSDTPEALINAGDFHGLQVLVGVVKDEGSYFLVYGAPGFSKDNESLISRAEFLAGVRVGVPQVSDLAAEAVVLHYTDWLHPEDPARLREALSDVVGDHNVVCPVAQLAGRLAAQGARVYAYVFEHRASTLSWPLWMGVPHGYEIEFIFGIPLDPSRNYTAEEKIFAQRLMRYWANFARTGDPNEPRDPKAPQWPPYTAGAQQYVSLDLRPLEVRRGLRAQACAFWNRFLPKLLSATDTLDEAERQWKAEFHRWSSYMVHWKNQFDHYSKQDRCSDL
# Method in brief: (§1)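 Modified Ellman assay with acetylthiocholine and DTNB in 0.1 M sodium phosphate pH 7.4 (enzymes diluted with 0.1% BSA), ≤0.2% DMSO, 25 °C. At least three inhibitor concentrations per substrate level; Ki,app from Hunter–Downs equation, Ki from y-intercept and inhibition type from Ki,app vs [S].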
# purified human BChE = target: T2, purified human BChE (Homo sapiens, UniProt P06276); test: biochemical; type: biochemical; conditions: ± standard error, 25 °C, ATCh substrate
# T2 construct: possibly also a gift of Dr Florian Nachon (the sentence is ambiguous)
# T2 sequence (P06276 29-602): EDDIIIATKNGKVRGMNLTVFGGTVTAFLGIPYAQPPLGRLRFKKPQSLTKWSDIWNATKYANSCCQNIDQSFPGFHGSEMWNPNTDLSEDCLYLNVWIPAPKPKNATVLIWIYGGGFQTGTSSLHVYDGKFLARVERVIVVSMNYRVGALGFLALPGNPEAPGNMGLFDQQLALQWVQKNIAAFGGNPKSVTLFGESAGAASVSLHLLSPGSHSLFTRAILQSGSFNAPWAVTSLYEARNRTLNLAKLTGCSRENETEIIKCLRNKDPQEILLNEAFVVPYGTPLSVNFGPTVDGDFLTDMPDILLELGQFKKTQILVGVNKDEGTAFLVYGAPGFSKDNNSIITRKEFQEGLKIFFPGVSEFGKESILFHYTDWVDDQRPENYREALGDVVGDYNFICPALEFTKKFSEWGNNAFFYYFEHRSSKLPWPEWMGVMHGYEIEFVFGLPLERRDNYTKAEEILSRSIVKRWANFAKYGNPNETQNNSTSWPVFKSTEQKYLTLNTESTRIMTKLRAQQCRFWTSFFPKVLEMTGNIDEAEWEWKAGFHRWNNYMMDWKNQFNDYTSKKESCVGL
# Method in brief: as §1
# [1] = Reverse-phase thin-layer chromatographic lipophilicity (RF, RM0); type: physicochemical; conditions: for RM0: intercept of RM = RM0 + bC; for b: slope of RM = RM0 + bC; for RF, Methanol/Water/Hydrochloric acid (conc.), mobile phase I: I = 90%MeOH/5%H2O/5%HCl; for RF, Dioxane/Water/Hydrochloric acid (conc.), mobile phase II: II = 80%Dioxane/15%H2O/5%HCl; for RF, Methanol/Water/Hydrochloric acid (conc.), mobile phase II: II = 85%MeOH/10%H2O/5%HCl; for RF, Acetone/Water/Hydrochloric acid (conc.), mobile phase III: III = 70%AC/25%H2O/5%HCl; for RF, Dioxane/Water/Hydrochloric acid (conc.), mobile phase III: III = 70%Dioxane/25%H2O/5%HCl; for RF, Methanol/Water/Hydrochloric acid (conc.), mobile phase III: III = 80%MeOH/15%H2O/5%HCl; for RF, Dioxane/Water/Hydrochloric acid (conc.), mobile phase IV: IV = 60%Dioxane/35%H2O/5%HCl; for RF, Acetone/Water/Hydrochloric acid (conc.), mobile phase IV: IV = 65%AC/30%H2O/5%HCl; for RF, Methanol/Water/Hydrochloric acid (conc.), mobile phase IV: IV = 75%MeOH/20%H2O/5%HCl; for RF, Acetone/Water/Hydrochloric acid (conc.), mobile phase IX: IX = 40%AC/55%H2O/5%HCl; for RF, Methanol/Water/Hydrochloric acid (conc.), mobile phase IX: IX = 50%MeOH/45%H2O/5%HCl; for RF, Dioxane/Water/Hydrochloric acid (conc.), mobile phase V: V = 50%Dioxane/45%H2O/5%HCl; for RF, Acetone/Water/Hydrochloric acid (conc.), mobile phase V: V = 60%AC/35%H2O/5%HCl; for RF, Methanol/Water/Hydrochloric acid (conc.), mobile phase V: V = 70%MeOH/25%H2O/5%HCl; for RF, Dioxane/Water/Hydrochloric acid (conc.), mobile phase VI: VI = 40%Dioxane/55%H2O/5%HCl; for RF, Acetone/Water/Hydrochloric acid (conc.), mobile phase VI: VI = 55%AC/40%H2O/5%HCl; for RF, Methanol/Water/Hydrochloric acid (conc.), mobile phase VI: VI = 65%MeOH/30%H2O/5%HCl; for RF, Acetone/Water/Hydrochloric acid (conc.), mobile phase VII: VII = 50%AC/45%H2O/5%HCl; for RF, Methanol/Water/Hydrochloric acid (conc.), mobile phase VII: VII = 60%MeOH/35%H2O/5%HCl; for RF, Acetone/Water/Hydrochloric acid (conc.), mobile phase VIII: VIII = 45%AC/50%H2O/5%HCl; for RF, Methanol/Water/Hydrochloric acid (conc.), mobile phase VIII: VIII = 55%MeOH/40%H2O/5%HCl
# Method in brief: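 Lipophilicity from RP-TLC retention at 22±2 °C over a 4.5 cm development distance. Eluents: organic modifier (methanol, acetone or dioxane), water and hydrochloric acid, methanol stepped by 10%. RM0 obtained from RF.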
# [2] = Ferric reducing antioxidant power (FRAP) assay; conditions: mean ± standard error of three experiments;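 further: expressed as µM Fe2+ equivalents from an FeSO4·7H2O standard curve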
# Method in brief: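 Ferric-TPTZ reduction measured by absorbance at 593 nm after 60 min at 37 °C in pH 3.6 acetate-buffered TPTZ/FeCl3 reagent, with test compounds at 10 and 100 µM. FRAP values calculated from an Fe2SO4·7H2O standard curve. Data from three independent experiments.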
# [3] = ± standard error, 25 °C, ATCh substrate, read-out: Ki AChE
# [4] = Acetone/Water/Hydrochloric acid (conc.)
# [5] = Dioxane/Water/Hydrochloric acid (conc.)
# [6] = Methanol/Water/Hydrochloric acid (conc.)
Structure (SMILES),IS (recombinant human AChE),Ki (recombinant human AChE; [3]),"RM0 [1, 4]","b [1, 4]","RM0 [1, 5]","b [1, 5]","RM0 [1, 6]","b [1, 6]","RF, Methanol/Water/Hydrochloric acid (conc.), mobile phase I ([1]; RP-18 silica)","RF, Dioxane/Water/Hydrochloric acid (conc.), mobile phase II ([1]; RP-18 silica)","RF, Methanol/Water/Hydrochloric acid (conc.), mobile phase II ([1]; RP-18 silica)","RF, Acetone/Water/Hydrochloric acid (conc.), mobile phase III ([1]; RP-18 silica)","RF, Dioxane/Water/Hydrochloric acid (conc.), mobile phase III ([1]; RP-18 silica)","RF, Methanol/Water/Hydrochloric acid (conc.), mobile phase III ([1]; RP-18 silica)","RF, Dioxane/Water/Hydrochloric acid (conc.), mobile phase IV ([1]; RP-18 silica)","RF, Acetone/Water/Hydrochloric acid (conc.), mobile phase IV ([1]; RP-18 silica)","RF, Methanol/Water/Hydrochloric acid (conc.), mobile phase IV ([1]; RP-18 silica)","RF, Acetone/Water/Hydrochloric acid (conc.), mobile phase IX ([1]; RP-18 silica)","RF, Methanol/Water/Hydrochloric acid (conc.), mobile phase IX ([1]; RP-18 silica)","RF, Dioxane/Water/Hydrochloric acid (conc.), mobile phase V ([1]; RP-18 silica)",other results
Clc1ccc2c(NCCCCCN(CCC34CC5CC(CC(C5)C3)C4)CCC34CC5CC(CC(C5)C3)C4)ccnc2c1 [Compound 11],2.5,0.33 ± 0.01 µM,3.759,4.955,2.01,2.862,5.504,5.94,0.43,0.64,0.31,0.32,0.58,0.09,0.47,0.27,0.09,0,0,0.13,"Ki (purified human BChE; read-out: Ki BChE): 820 ± 40 nM; RF, Acetone/Water/Hydrochloric acid (conc.), mobile phase I ([1]; RP-18 silica, I = 80%AC/15%H2O/5%HCl): 0.58; RF, Dioxane/Water/Hydrochloric acid (conc.), mobile phase I ([1]; RP-18 silica, I = 90%Dioxane/5%H2O/5%HCl): 0.74; RF, Acetone/Water/Hydrochloric acid (conc.), mobile phase II ([1]; RP-18 silica, II = 75%AC/20%H2O/5%HCl): 0.52; RF, Acetone/Water/Hydrochloric acid (conc.), mobile phase V ([1]; RP-18 silica): 0.12; RF, Methanol/Water/Hydrochloric acid (conc.), mobile phase V ([1]; RP-18 silica): 0.05; RF, Dioxane/Water/Hydrochloric acid (conc.), mobile phase VI ([1]; RP-18 silica): 0; RF, Acetone/Water/Hydrochloric acid (conc.), mobile phase VI ([1]; RP-18 silica): 0.08; RF, Methanol/Water/Hydrochloric acid (conc.), mobile phase VI ([1]; RP-18 silica): 0.01; RF, Acetone/Water/Hydrochloric acid (conc.), mobile phase VII ([1]; RP-18 silica): 0; RF, Methanol/Water/Hydrochloric acid (conc.), mobile phase VII ([1]; RP-18 silica): 0; RF, Acetone/Water/Hydrochloric acid (conc.), mobile phase VIII ([1]; RP-18 silica): 0; RF, Methanol/Water/Hydrochloric acid (conc.), mobile phase VIII ([1]; RP-18 silica): 0; FRAP ([2]; 10 µM compound): 5.3 ± 1.4 µM; FRAP ([2]; 100 µM compound): 23 ± 4 µM"
CC(CCNCC12CC3CC(CC(C3)C1)C2)Nc1ccnc2cc(Cl)ccc12 (centres unmarked) [Compound 12],2.1,0.56 ± 0.02 µM,1.835,3.007,0.75,1.647,2.4121,3.174,0.71,0.75,0.66,0.62,0.72,0.53,0.72,0.58,0.5,0.15,0.1,0.54,"Ki (recombinant human AChE; log (Ki/µM AChE), read-out: Y Measured 1 log(ki)Ache (converted)): 0.56 µM; Ki (purified human BChE; Ki BChE): 1200 ± 100 nM; RF, Acetone/Water/Hydrochloric acid (conc.), mobile phase V ([1]; RP-18 silica): 0.48; RF, Methanol/Water/Hydrochloric acid (conc.), mobile phase V ([1]; RP-18 silica): 0.44; RF, Dioxane/Water/Hydrochloric acid (conc.), mobile phase VI ([1]; RP-18 silica): 0.4; RF, Acetone/Water/Hydrochloric acid (conc.), mobile phase VI ([1]; RP-18 silica): 0.41; RF, Methanol/Water/Hydrochloric acid (conc.), mobile phase VI ([1]; RP-18 silica): 0.36; RF, Acetone/Water/Hydrochloric acid (conc.), mobile phase VII ([1]; RP-18 silica): 0.34; RF, Methanol/Water/Hydrochloric acid (conc.), mobile phase VII ([1]; RP-18 silica): 0.25; RF, Acetone/Water/Hydrochloric acid (conc.), mobile phase VIII ([1]; RP-18 silica): 0.29; RF, Methanol/Water/Hydrochloric acid (conc.), mobile phase VIII ([1]; RP-18 silica): 0.18; FRAP ([2]; 10 µM compound): 24.2 ± 0.0 µM; FRAP ([2]; 100 µM compound): 37 ± 7 µM"
